A short description of series [1]: HPLC-RP retention time as measure of β-peptide hydrophobicity. The format is physicochemical. Particulars: used to sort the β-peptides by hydrophobicity. As for the experimental part: Fig 1 i. Structures of antifungal β-peptides used in this study. The codification (#number) corresponds to the nomenclature used by Lee et al. in a previous publication. β-peptide (e) is a fluorescently labeled β-peptide. The C-terminus is amidated for all β-peptides. ii. HPLC-RP retention time for the β-peptides synthesized in this work, see Figs A-D in S1 File for further details. TEXT PRINTED IN THE PICTURE: (ii) #4: Retention time tR: 24.5 ± 0.2 min | (ii) #21: Retention time tR: 25.2 ± 0.2 min | (ii) #5: Retention time tR: 25.4 ± 0.1 min | (ii) #16: Retention time tR: 27.4 ± 0.2 min
The experiments compiled here establish structural-functional correlations of the β-peptides as a function of the cytotoxicity in mammalian cells other than erythrocytes.

Series [2] deals with HepG2 cells. The experiment in a line: cells. The format is cell-based, human. To be noted: for IC50 HepG2: 24 h. As to the method:
(§1) HepG2 and Caco-2 were tittered from a culture at 70–80% confluence. HepG2 and Caco-2 cells were seeded at 13,000 and 9,000 cells, respectively, in a clear flat bottom 96-well plate with dark walls (Corning, NY, USA). Then they were allowed to adhere and proliferate in DMEM for 48 hours. Agents were prepared under the following conditions: β-peptides were dissolved and diluted in DMEM to the final working concentration; while AmpB and Keto were first dissolved in DMSO as a vehicle. The DMSO concentration was kept under 0.5% v/v in the experimental sample as well as in the untreated control cell media. Cells were exposed to the agent during 24 hours. Afterwards, the cells were washed two times with Hank’s Balanced Salt Solution (HBSS). Then, fresh DMEM was added to each plate and incubated until the control reached approximately 90% confluency. Cell viability was determined using CellTiter Blue™ (Promega, WI, USA), an assay based on the capacity of cells to reduce resazurin to resorufin, a fluorescent product whose intensity is proportional to the viable cells in the sample. […] After incubation, the fluorescence was measured using a Spectra Max Gemini EM spectrofluorometer (560Ex/590Em) (Sunnyvale, CA, USA). The long-term effect of the treatments with β-peptides was assessed using the model peptide (ACHC-β3hV-β3hK) in a clonogenic assay. In these assays, 1.25x10^5 and 9x10^4 cells/ml from HepG2 and Caco-2, respectively, were seeded in a 25cm^2 flask. The media was changed every two days. Once cells reached a confluence between 70–80%, they were treated in the flask with (ACHC-β3hV-β3hK) at 20 μg/mL in DMEM, a sub-lethal concentration, for 24 hours. They were then washed two times with PBS and allowed to recover in fresh medium for six hours, followed by trypsinization and tittering.
(§2) In vitro cytotoxicity assessments for HepG2 and Caco-2 were performed two independent times, each with four replicates (n = 8). A multivariate study of the data was performed through PCA to ascertain the impact of increasing β-peptide hydrophobicity on the viability of the treated cells. PCA was done using XLSTAT 2014 trial version, under a Pearson approach. The input matrix set to the program consisted of eleven rows and four columns of data. The first column contained the concentrations tested and the remainder columns contained the viability ratio obtained after exposure to the β-peptides #4, #5, and #16 (see Fig 1ii). The data of β-peptide #21 was not used in this analysis due to structural differences (lack of ACHC residues), which affects the molecule’s helicity. The ratio IC50/MICaver represents the selectivity of the β-peptides for the fungal cells over that of host cells, termed selectivity index (SI). For the purpose of the present study the SIs were calculated based on MICs for C. albicans published previously.

Series [3] concerns Caco-2 cells. The experiment in a line: In vitro cytotoxicity, CellTiter Blue viability, dose-effect curves. The format is cell-based. To be noted: for IC50 Caco-2: 24 h. As for the experimental part:
as §1, §2
For orientation: The colour change of resazurin is a common sign of viable cells or microbes.

The subject of series [4] is Caco-2 cells. As to the kind of experiment: Clonogenic assay, long-term effect. The format is cell-based. Particulars: Caco-2, 20 μg/mL for 24 hours. As for the experimental part: as §1
(§3) The long-term cytotoxic effect of β-peptides was evaluated using clonogenic assays (see Fig F in S1 File). In order to validate the data obtained from the dose-response curves for Caco-2 and HepG2, (ACHC-β3hV-β3hK) was selected as a β-peptide model to perform these assays due to its well-established biological activity against C. albicans, its hemolytic activity, and, with this study, its effect on HepG2 and Caco-2. A constant concentration of 20 μg/mL was chosen for these experiments. The chosen concentration of (ACHC-β3hV-β3hK) falls within the range of concentrations used in short-term assays, where 20 μg/mL of this β-peptide assured that both of the cell lines were affected to the same extent.

In series [5] the test system is HepG2 cells. As to the kind of experiment: Clonogenic assay, long-term effect. To be noted: HepG2, 20 μg/mL for 24 hours. The format is cell-based. As for the experimental part:
as §1, §3

Where [6] appears, read: two independent times, each three biological replicates.

≈ marks a conversion by molar mass, not a printed value. Entries after “also recorded” stand apart in the source; their conditions may differ.

Take `CC(C)[C@@H](CC(=O)N[C@@H](CCCCN)CC(N)=O)NC(=O)[C@H]1CCCC[C@@H]1NC(=O)C[C@H](CCCCN)NC(=O)C[C@@H](NC(=O)[C@H]1CCCC[C@@H]1NC(=O)C[C@H](CCCCN)NC(=O)C[C@@H](NC(=O)[C@H]1CCCC[C@@H]1N)C(C)C)C(C)C` [#4, NH2-(ACHC-β^3hVal-β^3hLys)3]: the “Retention time tR” value in series [1] is on record as 24.5 ± 0.2 min. For the same compound, the “IC50 HepG2” value in series [2] worked out at 38.75 ± 0.89 µg/mL (≈ 33.4 µM). For the same compound, in series [3], the “IC50 Caco-2” value was 27.33 ± 1.5 µg/mL (≈ 23.6 µM). In addition, the “surviving fraction (long-term) versus short-term viability; colony forming ability” value in series [4] (listed as (ACHC-β3hV-β3hK)) is given as “no significant difference; also recorded: slight decrease in colony forming ability”. The figures for the “plating efficiency of treated cells” value in series [4] (setting [6]) and in series [5] (setting [6]) were more than 22% and more than 9.5%, respectively. The “surviving fraction (long-term) versus short-term viability” value in series [5] is reported as “no significant difference”.

In the case of `CC(C)[C@@H](CC(=O)N[C@@H](CCCNC(=N)N)CC(N)=O)NC(=O)[C@H]1CCCC[C@@H]1NC(=O)C[C@H](CCCNC(=N)N)NC(=O)C[C@@H](NC(=O)[C@H]1CCCC[C@@H]1NC(=O)C[C@H](CCCNC(=N)N)NC(=O)C[C@@H](NC(=O)[C@H]1CCCC[C@@H]1N)C(C)C)C(C)C` [#5, NH2-(ACHC-β^3hVal-β^3hArg)3], the “Retention time tR” value in series [1] is listed as 25.4 ± 0.1 min. In series [2], the “IC50 HepG2” value came out at 47.25 ± 5.12 µg/mL (≈ 38 µM). Moreover, the “IC50 Caco-2” value in series [3] is 43.33 ± 9.0 µg/mL (≈ 34.9 µM).

For `NCCCC[C@@H](CC(N)=O)NC(=O)C[C@H](Cc1ccccc1)NC(=O)[C@H]1CCCC[C@@H]1NC(=O)C[C@H](CCCCN)NC(=O)C[C@H](Cc1ccccc1)NC(=O)[C@H]1CCCC[C@@H]1NC(=O)C[C@H](CCCCN)NC(=O)C[C@H](Cc1ccccc1)NC(=O)[C@H]1CCCC[C@@H]1NC(=O)C[C@@H](N)Cc1ccc(O)cc1` [#16, NH2-β^3hTyr-(ACHC-β^3hPhe-β^3hLys)3], in series [2], the “cytotoxicity towards HepG2, dose-effect curve in words” value is recorded as “greatest toxic effect at these lower concentrations” and the “IC50 HepG2” value worked out at 42.5 ± 6.21 µg/mL (≈ 28.7 µM).

Take `CC(C)[C@@H](CC(=O)N[C@@H](CCCNC(=N)N)CC(=O)N[C@H](CC(=O)N[C@H](CC(=O)N[C@@H](CCCNC(=N)N)CC(=O)N[C@H](CC(=O)N[C@H](CC(=O)N[C@@H](CCCNC(=N)N)CC(N)=O)C(C)C)C(C)C)C(C)C)C(C)C)NC(=O)C[C@@H](NC(=O)C[C@@H](N)Cc1ccc(O)cc1)C(C)C` [#21, NH2-β^3hTyr-(β^3hVal-β^3hVal-β^3hArg)3]: in series [1], the “Retention time tR” value is reported as 25.2 ± 0.2 min. Also, the “IC50 HepG2” value in series [2] is 52.5 ± 4.98 µg/mL (≈ 37.9 µM). Besides, the “IC50 Caco-2” value in series [3] amounted to 31.33 ± 3.27 µg/mL (≈ 22.6 µM).

Broadly, the inhibition is the share of the control response that was lost under treatment. Higher therefore signals a strong effect. For `C[C@@H]1[C@H](O)[C@@H](C)/C=C/C=C/C=C/C=C/C=C/C=C/C=C/[C@H](O[C@@H]2O[C@H](C)[C@@H](O)[C@H](N)[C@@H]2O)C[C@@H]2O[C@](O)(C[C@@H](O)C[C@@H](O)[C@H](O)CC[C@@H](O)C[C@@H](O)CC(=O)O[C@H]1C)C[C@H](O)[C@H]2C(=O)O` [AmpB, Amphotericin B, reference compound], the “cytotoxicity towards HepG2, dose-effect curve in words” value in series [2] is “did not reach 100% cytotoxicity”. The “IC30 HepG2” value in series [2] (24 hours of exposure, from dose-effect curve) is 30 µg/mL (≈ 32.5 µM). The compound further had an inhibition at 30 µg/mL in series [2] (Homo sapiens, HepG2, 30 μg/mL, 24 hours of exposure) of 30%. Moreover, in series [3] (Caco-2), the “cytotoxicity towards Caco-2, dose-effect curve in words” value was “did not affect the viability”.

The IC50 is the midpoint of a concentration-inhibition curve. Low readings indicate greater potency, high ones weaker potency. In series [2] (Homo sapiens, HepG2, 24 hours of exposure, CellTiter Blue, two independent experiments, each four replicates (n = 8)), `CC(=O)N1CCN(c2ccc(OCC3COC(Cn4ccnc4)(c4ccc(Cl)cc4Cl)O3)cc2)CC1` (stereo not shown) [Keto, ketoconazole, reference compound] gave a half-inhibitory concentration (IC50) of 70 µg/mL (≈ 132 µM). The “cytotoxicity towards Caco-2, dose-effect curve in words” value in series [3] (24 hours of exposure, tested concentration range) is on record as “not statistically different than the response observed for HepG2”.

`COc1ccc2cc(C(=O)NCCOCCOCC(=O)N[C@H]3CCCC[C@@H]3C(=O)N[C@H](CC(=O)N[C@@H](CCCCN)CC(=O)N[C@H]3CCCC[C@@H]3C(=O)N[C@H](CC(=O)N[C@@H](CCCCN)CC(=O)N[C@H]3CCCC[C@@H]3C(=O)N[C@H](CC(=O)N[C@@H](CCCCN)CC(N)=O)C(C)C)C(C)C)C(C)C)c(=O)oc2c1` [coumarin-(ACHC-β3hV-β3hK)]: the “effect on viability at 16 μg/mL” value in series [2] was “does not exert a significant effect on viability”.

Source of the values: article PMC4798767, “Hydrophobicity of Antifungal β-Peptides Is Associated with Their Cytotoxic Effect on In Vitro Human Colon Caco-2 and Liver HepG2 Cells” (PLoS ONE, 2016).
